Measured values reported in patent US9422297B2, “Tricyclic compounds having cytostatic and/or cytotoxic activity and methods of use thereof” (Duquesne University of the Holy Ghost, priority 2007, dated 2016).

Tests used:
OCRF-CEM = test: NCI In-Vitro Testing, Leukemia; type: cell-based
HOP-52 = test: NCI In-Vitro Testing, Non-Small Cell Lung Cancer; type: cell-based
HS 576T = test: NCI In-Vitro Testing, Breast Cancer; type: cell-based
SF-295 = test: NCI In-Vitro Testing, CNS Cancer; type: cell-based
K-562 = test: NCI In-Vitro Testing, Leukemia; type: cell-based
Flk-1 kinase = Flk-1 kinase (Homo sapiens (Human), UniProt P35968); test: Flk-1 kinase inhibition; type: biochemical; conditions: Table 3
Flk-1 kinase, sequence (P35968 20-1356): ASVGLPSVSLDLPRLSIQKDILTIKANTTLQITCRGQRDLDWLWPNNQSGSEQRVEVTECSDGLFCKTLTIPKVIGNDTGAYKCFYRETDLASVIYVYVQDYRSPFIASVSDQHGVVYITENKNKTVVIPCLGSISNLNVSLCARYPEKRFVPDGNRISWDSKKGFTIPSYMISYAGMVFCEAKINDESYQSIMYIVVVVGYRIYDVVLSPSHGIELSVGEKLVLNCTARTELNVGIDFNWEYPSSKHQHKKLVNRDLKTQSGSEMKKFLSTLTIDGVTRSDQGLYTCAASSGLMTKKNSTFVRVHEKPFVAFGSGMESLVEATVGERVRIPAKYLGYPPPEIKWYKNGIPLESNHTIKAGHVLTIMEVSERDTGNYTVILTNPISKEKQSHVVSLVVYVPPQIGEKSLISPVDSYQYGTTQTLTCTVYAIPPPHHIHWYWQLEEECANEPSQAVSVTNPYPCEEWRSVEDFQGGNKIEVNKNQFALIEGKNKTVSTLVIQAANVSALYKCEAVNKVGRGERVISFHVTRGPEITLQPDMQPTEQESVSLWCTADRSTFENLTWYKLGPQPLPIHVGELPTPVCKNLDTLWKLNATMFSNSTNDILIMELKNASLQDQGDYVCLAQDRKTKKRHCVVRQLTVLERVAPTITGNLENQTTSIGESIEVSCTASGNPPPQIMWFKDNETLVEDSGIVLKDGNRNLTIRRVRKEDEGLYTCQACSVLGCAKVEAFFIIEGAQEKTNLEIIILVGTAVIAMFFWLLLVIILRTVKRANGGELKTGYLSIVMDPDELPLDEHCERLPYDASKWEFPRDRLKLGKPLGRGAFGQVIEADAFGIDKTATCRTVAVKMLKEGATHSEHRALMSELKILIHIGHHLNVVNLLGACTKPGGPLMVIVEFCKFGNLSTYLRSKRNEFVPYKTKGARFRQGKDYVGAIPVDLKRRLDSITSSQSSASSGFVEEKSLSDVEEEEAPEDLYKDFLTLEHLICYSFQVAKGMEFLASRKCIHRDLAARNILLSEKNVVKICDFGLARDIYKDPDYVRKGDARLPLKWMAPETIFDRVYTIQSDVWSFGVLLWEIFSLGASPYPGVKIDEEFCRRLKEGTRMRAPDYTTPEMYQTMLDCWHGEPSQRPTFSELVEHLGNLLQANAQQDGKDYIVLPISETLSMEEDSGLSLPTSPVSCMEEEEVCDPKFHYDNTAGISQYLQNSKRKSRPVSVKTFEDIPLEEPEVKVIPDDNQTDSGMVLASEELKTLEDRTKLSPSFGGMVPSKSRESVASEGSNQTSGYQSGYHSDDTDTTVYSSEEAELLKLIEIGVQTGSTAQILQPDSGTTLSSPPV

MALME-3M = test: NCI In-Vitro Testing, Melanoma; type: cell-based
T-47D = test: NCI In-Vitro Testing, Breast Cancer; type: cell-based
SR = test: NCI In-Vitro Testing, Leukemia; type: cell-based
SK-MEL-5 = test: NCI In-Vitro Testing, Melanoma; type: cell-based
MOLT-4 = test: NCI In-Vitro Testing, Leukemia; type: cell-based
PC-3 = test: NCI In-Vitro Testing, Prostate Cancer; type: cell-based
B16-F10 tumors = test: B16-F10 tumor model in vivo; conditions: athymic mice, 25 mg/kg three times weekly, vs methotrexate and sham
NCWADR-RES = test: NCI In-Vitro Testing, Breast Cancer; type: cell-based
SN12C = test: NCI In-Vitro Testing, Renal Cancer; type: cell-based
TK-10 = test: NCI In-Vitro Testing, Renal Cancer; type: cell-based
NCI-H23 = test: NCI In-Vitro Testing, Non-Small Cell Lung Cancer; type: cell-based
HT29 = test: NCI In-Vitro Testing, Colon Cancer; type: cell-based
MDA-MB-231/ATCC = test: NCI In-Vitro Testing, Breast Cancer; type: cell-based

SMILES: Nc1nc2c(c(Nc3ccc(Cl)cc3)n1)-c1ccccc1C2 [AAG145-136]
- GI50 (OCRF-CEM): 3.12E−6 Molar
- LC50 (OCRF-CEM): >1.00E−4 Molar
- TGI (OCRF-CEM): >1.00E−4 Molar
- Percent Growth (OCRF-CEM; Log10 Concentration −4.0 Molar): 11%
- Percent Growth (OCRF-CEM; Log10 Concentration −5.0 Molar): 6%
- Percent Growth (OCRF-CEM; Log10 Concentration −6.0 Molar): 8%
- Percent Growth (OCRF-CEM; Log10 Concentration −7.0 Molar): 22%
- Percent Growth (OCRF-CEM; Log10 Concentration −8.0 Molar): 77%
- GI50 (HOP-52): 6.54E−7 Molar
- LC50 (HOP-52): >1.00E−4 Molar
- TGI (HOP-52): >1.00E−4 Molar
- Percent Growth (HOP-52; Log10 Concentration −4.0 Molar): 32%
- Percent Growth (HOP-52; Log10 Concentration −5.0 Molar): 25%
- Percent Growth (HOP-52; Log10 Concentration −6.0 Molar): 40%
- Percent Growth (HOP-52; Log10 Concentration −7.0 Molar): 94%
- Percent Growth (HOP-52; Log10 Concentration −8.0 Molar): 97%
- GI50 (HS 576T): 2.22E−6 Molar
- LC50 (HS 576T): >1.00E−4 Molar
- TGI (HS 576T): 2.94E−5 Molar
- Percent Growth (HS 576T; Log10 Concentration −4.0 Molar): −13%
- Percent Growth (HS 576T; Log10 Concentration −5.0 Molar): 11%
- Percent Growth (HS 576T; Log10 Concentration −6.0 Molar): 71%
- Percent Growth (HS 576T; Log10 Concentration −7.0 Molar): 97%
- Percent Growth (HS 576T; Log10 Concentration −8.0 Molar): 104%
- GI50 (SF-295): 5.47E−7 Molar
- LC50 (SF-295): >1.00E−4 Molar
- TGI (SF-295): >1.00E−4 Molar
- Percent Growth (SF-295; Log10 Concentration −4.0 Molar): 17%
- Percent Growth (SF-295; Log10 Concentration −5.0 Molar): 20%
- Percent Growth (SF-295; Log10 Concentration −6.0 Molar): 34%
- Percent Growth (SF-295; Log10 Concentration −7.0 Molar): 95%
- Percent Growth (SF-295; Log10 Concentration −8.0 Molar): 105%
- GI50 (K-562): 3.56E−7 Molar
- LC50 (K-562): >1.00E−4 Molar
- TGI (K-562): >1.00E−4 Molar
- Percent Growth (K-562; Log10 Concentration −4.0 Molar): 26%
- Percent Growth (K-562; Log10 Concentration −5.0 Molar): 16%
- Percent Growth (K-562; Log10 Concentration −6.0 Molar): 20%
- Percent Growth (K-562; Log10 Concentration −7.0 Molar): 89%
- Percent Growth (K-562; Log10 Concentration −8.0 Molar): 103%
- IC50 (Flk-1 kinase): > 200 µM
- GI50 (MALME-3M): >1.00E−4 Molar
- LC50 (MALME-3M): >1.00E−4 Molar
- TGI (MALME-3M): >1.00E−4 Molar
- Percent Growth (MALME-3M; Log10 Concentration −4.0 Molar): 78%
- Percent Growth (MALME-3M; Log10 Concentration −5.0 Molar): 64%
- Percent Growth (MALME-3M; Log10 Concentration −6.0 Molar): 106%
- Percent Growth (MALME-3M; Log10 Concentration −7.0 Molar): 97%
- Percent Growth (MALME-3M; Log10 Concentration −8.0 Molar): 96%
- GI50 (T-47D): 2.90E−6 Molar
- LC50 (T-47D): >1.00E−4 Molar
- TGI (T-47D): >1.00E−4 Molar
- Percent Growth (T-47D; Log10 Concentration −4.0 Molar): 27%
- Percent Growth (T-47D; Log10 Concentration −5.0 Molar): 34%
- Percent Growth (T-47D; Log10 Concentration −6.0 Molar): 63%
- Percent Growth (T-47D; Log10 Concentration −7.0 Molar): 83%
- Percent Growth (T-47D; Log10 Concentration −8.0 Molar): 88%
- GI50 (SR): 4.84E−8 Molar
- LC50 (SR): >1.00E−4 Molar
- TGI (SR): >1.00E−4 Molar
- Percent Growth (SR; Log10 Concentration −4.0 Molar): 2%
- Percent Growth (SR; Log10 Concentration −5.0 Molar): 12%
- Percent Growth (SR; Log10 Concentration −6.0 Molar): 22%
- Percent Growth (SR; Log10 Concentration −7.0 Molar): 41%
- Percent Growth (SR; Log10 Concentration −8.0 Molar): 70%
- GI50 (SK-MEL-5): 5.13E−7 Molar
- LC50 (SK-MEL-5): >1.00E−4 Molar
- TGI (SK-MEL-5): 1.59E−5 Molar
- Percent Growth (SK-MEL-5; Log10 Concentration −4.0 Molar): −45%
- Percent Growth (SK-MEL-5; Log10 Concentration −5.0 Molar): 11%
- Percent Growth (SK-MEL-5; Log10 Concentration −6.0 Molar): 35%
- Percent Growth (SK-MEL-5; Log10 Concentration −7.0 Molar): 87%
- Percent Growth (SK-MEL-5; Log10 Concentration −8.0 Molar): 95%
- GI50 (MOLT-4): 6.61E−8 Molar
- LC50 (MOLT-4): >1.00E−4 Molar
- TGI (MOLT-4): >1.00E−4 Molar
- Percent Growth (MOLT-4; Log10 Concentration −4.0 Molar): 21%
- Percent Growth (MOLT-4; Log10 Concentration −5.0 Molar): 11%
- Percent Growth (MOLT-4; Log10 Concentration −6.0 Molar): 14%
- Percent Growth (MOLT-4; Log10 Concentration −7.0 Molar): 39%
- Percent Growth (MOLT-4; Log10 Concentration −8.0 Molar): 99%
- GI50 (PC-3): 7.15E−7 Molar
- LC50 (PC-3): >1.00E−4 Molar
- TGI (PC-3): 7.99E−5 Molar
- Percent Growth (PC-3; Log10 Concentration −4.0 Molar): −2%
- Percent Growth (PC-3; Log10 Concentration −5.0 Molar): 18%
- Percent Growth (PC-3; Log10 Concentration −6.0 Molar): 40%
- Percent Growth (PC-3; Log10 Concentration −7.0 Molar): 111%
- Percent Growth (PC-3; Log10 Concentration −8.0 Molar): 104%
- antitumor activity (tumor volume, tumor growth rate) (B16-F10 tumors): potent antitumor activity
- GI50 (NCWADR-RES): 7.87E−7 Molar
- LC50 (NCWADR-RES): >1.00E−4 Molar
- TGI (NCWADR-RES): >1.00E−4 Molar
- Percent Growth (NCWADR-RES; Log10 Concentration −4.0 Molar): 24%
- Percent Growth (NCWADR-RES; Log10 Concentration −5.0 Molar): 29%
- Percent Growth (NCWADR-RES; Log10 Concentration −6.0 Molar): 44%
- Percent Growth (NCWADR-RES; Log10 Concentration −7.0 Molar): 100%
- Percent Growth (NCWADR-RES; Log10 Concentration −8.0 Molar): 100%
- GI50 (SN12C): 1.89E−7 Molar
- LC50 (SN12C): >1.00E−4 Molar
- TGI (SN12C): >1.00E−4 Molar
- Percent Growth (SN12C; Log10 Concentration −4.0 Molar): 9%
- Percent Growth (SN12C; Log10 Concentration −5.0 Molar): 25%
- Percent Growth (SN12C; Log10 Concentration −6.0 Molar): 37%
- Percent Growth (SN12C; Log10 Concentration −7.0 Molar): 55%
- Percent Growth (SN12C; Log10 Concentration −8.0 Molar): 102%
- GI50 (TK-10): 2.15E−6 Molar
- LC50 (TK-10): >1.00E−4 Molar
- TGI (TK-10): >1.00E−4 Molar
- Percent Growth (TK-10; Log10 Concentration −4.0 Molar): 27%
- Percent Growth (TK-10; Log10 Concentration −5.0 Molar): 34%
- Percent Growth (TK-10; Log10 Concentration −6.0 Molar): 58%
- Percent Growth (TK-10; Log10 Concentration −7.0 Molar): 113%
- Percent Growth (TK-10; Log10 Concentration −8.0 Molar): 110%
- GI50 (NCI-H23): 5.55E−7 Molar
- LC50 (NCI-H23): >1.00E−4 Molar
- TGI (NCI-H23): >1.00E−4 Molar
- Percent Growth (NCI-H23; Log10 Concentration −4.0 Molar): 16%
- Percent Growth (NCI-H23; Log10 Concentration −5.0 Molar): 21%
- Percent Growth (NCI-H23; Log10 Concentration −6.0 Molar): 37%
- Percent Growth (NCI-H23; Log10 Concentration −7.0 Molar): 90%
- Percent Growth (NCI-H23; Log10 Concentration −8.0 Molar): 86%
- GI50 (HT29): 9.39E−8 Molar
- LC50 (HT29): >1.00E−4 Molar
- TGI (HT29): >1.00E−4 Molar
- Percent Growth (HT29; Log10 Concentration −4.0 Molar): 2%
- Percent Growth (HT29; Log10 Concentration −5.0 Molar): 7%
- Percent Growth (HT29; Log10 Concentration −6.0 Molar): 21%
- Percent Growth (HT29; Log10 Concentration −7.0 Molar): 49%
- Percent Growth (HT29; Log10 Concentration −8.0 Molar): 94%
- GI50 (MDA-MB-231/ATCC): 6.41E−7 Molar
- LC50 (MDA-MB-231/ATCC): >1.00E−4 Molar
- TGI (MDA-MB-231/ATCC): >1.00E−4 Molar
- Percent Growth (MDA-MB-231/ATCC; Log10 Concentration −4.0 Molar): 30%
- Percent Growth (MDA-MB-231/ATCC; Log10 Concentration −5.0 Molar): 29%
- Percent Growth (MDA-MB-231/ATCC; Log10 Concentration −6.0 Molar): 45%
- Percent Growth (MDA-MB-231/ATCC; Log10 Concentration −7.0 Molar): 70%
- Percent Growth (MDA-MB-231/ATCC; Log10 Concentration −8.0 Molar): 92%
